Laboratory results published in the supplement of paper PMC10307832.

What was measured:
Assay in all cases: relative viability (nuclei count vs DMSO), 5 days (fraction); higher = more cells survive
[1] = compound: NCC(=O)Nc1ccc(-n2nc(C(F)(F)F)cc2-c2ccc3c(ccc4ccccc43)c2)cc1 + COc1cc2c(Oc3ccc(NC(=O)C4(C(=O)Nc5ccc(F)cc5)CC4)cc3F)ccnc2cc1OCCCN1CCOCC1 [Foretinib] (partner 0.25 µM)
Summary of the method: (§1)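 Relative viability was taken as the ratio of nuclei in treated wells to nuclei in vehicle wells. Lung cancer cell lines in 1536-well plates received compounds by pin tool one day after seeding, either one drug alone or a fixed anchor-drug dose plus five library-drug doses (not always all listed) in √10 steps. Nuclei were counted on 4× images after 5 days of treatment, and values are medians of duplicate plates.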

[2] = compound: NCC(=O)Nc1ccc(-n2nc(C(F)(F)F)cc2-c2ccc3c(ccc4ccccc43)c2)cc1 + CC(=O)Nc1cccc(-n2c(=O)n(C3CC3)c(=O)c3c(Nc4ccc(I)cc4F)n(C)c(=O)c(C)c32)c1 [Trametinib] (partner 0.02 µM)
Summary of the method: as §1

[3] = compound: C1CSC2=C(C(=O)N1)SC3=C2C=C(C=C3)O [kb NB 142-70] + N=C(N)NC(=N)NCCc1ccccc1 [Phenformin] (partner 250 µM)
Summary of the method: as §1

[4] = compound: C1CSC2=C(C(=O)N1)SC3=C2C=C(C=C3)O [kb NB 142-70] + Cc1cc(Nc2cc(N3CCN(C)CC3)nc(Sc3ccc(NC(=O)C4CC4)cc3)n2)n[nH]1 [Tozasertib] (partner 0.1 µM)
Summary of the method: as §1

Cell Line | relative viability ([1]; first compound 0.02 µM) | relative viability ([1]; first compound 0.06325 µM) | relative viability ([1]; first compound 0.2 µM) | relative viability ([1]; first compound 0.6325 µM) | relative viability ([1]; first compound 2 µM) | relative viability ([2]; first compound 0.02 µM) | relative viability ([2]; first compound 0.06325 µM) | relative viability ([2]; first compound 0.2 µM) | relative viability ([2]; first compound 0.6325 µM) | relative viability ([2]; first compound 2 µM) | relative viability ([3]; first compound 0.1 µM) | relative viability ([3]; first compound 1 µM) | relative viability ([3]; first compound 3.162 µM) | relative viability ([4]; first compound 0.1 µM) | relative viability ([4]; first compound 1 µM) | relative viability ([4]; first compound 3.162 µM)
NCI-H727 | 0.912 | 0.92 | 1.21 | 1.07 | 1.04 | 0.411 | 0.372 | 0.351 | 0.346 | 0.394 | 0.585 | 0.714 | 0.605 | 0.607 | 0.541 | 0.514
NCI-H838 | 1.1 | 1.02 | 1.12 | 1 | 0.969 | 0.515 | 0.539 | 0.521 | 0.43 | 0.411 | 0.561 | 0.575 | 0.571 | 0.29 | 0.249 | 0.271
NCI-H1355 | 0.954 | 1.03 | 1.04 | 1.02 | 0.981 | 0.414 | 0.481 | 0.47 | 0.428 | 0.433 | 0.485 | 0.451 | 0.453 | 0.577 | 0.542 | 0.428
NCI-H1395 | 1.12 | 1.01 | 1.07 | 1 | 0.981 | 1.09 | 0.998 | 1.1 | 1.03 | 1.09 | 0.45 | 0.484 | 0.434 | 0.724 | 0.784 | 0.729
NCI-H1437 | 1.26 | 1.31 | 1.25 | 1.28 | 1.22 | 0.519 | 0.579 | 0.497 | 0.467 | 0.683 | 0.308 | 0.292 | 0.262 | 0.407 | 0.421 | 0.446
NCI-H1650 | 1.42 | 1.25 |  | 1.43 | 1.19 | 0.403 | 0.54 | 0.648 | 0.769 | 0.642 | 0.457 | 0.525 | 0.324 | 0.47 | 0.334 | 0.339
NCI-H1651 | 0.758 | 0.823 | 0.805 | 0.789 | 0.803 | 0.804 | 0.815 | 0.858 | 0.798 | 0.851 | 0.327 | 0.321 | 0.205 | 0.678 | 0.748 | 0.311
NCI-H1666 | 0.975 | 1.01 | 0.998 | 0.963 | 0.932 | 0.905 | 0.849 | 0.914 | 0.868 | 0.851 | 0.558 | 0.526 | 0.467 | 0.642 | 0.614 | 0.479
NCI-H1734 | 0.795 | 0.875 | 0.919 | 0.766 | 0.9 | 0.686 | 0.712 | 0.667 | 0.657 | 0.7 | 0.371 | 0.346 | 0.267 | 0.271 | 0.263 | 0.234
NCI-H1755 | 0.928 | 0.882 | 0.947 | 0.921 | 0.905 | 0.782 | 0.765 | 0.737 | 0.768 | 0.71 | 0.586 | 0.587 | 0.638 | 0.627 | 0.492 | 0.63
NCI-H1793 | 0.622 | 0.661 | 0.562 | 0.6 | 0.92 | 0.438 | 0.373 | 0.498 | 0.435 | 0.396 | 0.285 | 0.406 | 0.42 | 0.377 | 0.346 | 0.197
NCI-H1915 | 1.12 | 1.12 | 1.09 | 1.06 | 1.11 | 0.284 | 0.314 | 0.31 | 0.296 | 0.322 | 0.365 | 0.359 | 0.258 | 0.445 | 0.397 | 0.276
NCI-H1944 | 0.795 | 0.841 | 0.827 | 0.888 | 1.01 | 0.429 | 0.408 | 0.437 | 0.413 | 0.403 | 0.202 | 0.205 | 0.2 | 0.244 | 0.244 | 0.27
NCI-H1975 | 1.03 | 0.94 | 1.08 | 1 | 0.984 | 0.399 | 0.39 | 0.405 | 0.32 | 0.284 | 0.394 | 0.366 | 0.235 | 0.787 | 0.746 | 0.28
NCI-H1993 | 0.861 | 0.819 | 0.814 | 0.796 | 0.835 | 0.494 | 0.41 | 0.586 | 0.64 | 0.515 | 0.567 | 0.488 | 0.549 | 0.604 | 0.648 | 0.536
NCI-H2009 | 1.27 | 1.19 | 1.38 | 1.14 | 1.25 | 0.265 | 0.35 | 0.316 | 0.275 | 0.301 | 0.477 | 0.547 | 0.429 | 0.75 | 0.649 | 0.48
NCI-H2023 | 1.01 | 0.905 | 0.947 | 0.731 | 0.859 | 0.552 | 0.709 | 0.702 | 0.513 | 0.358 | 0.382 | 0.44 | 0.391 | 0.367 | 0.358 | 0.276
